Consider 24 compounds from US20130102593A1, “PYRROLIDINE COMPOUNDS WHICH INHIBIT BETA-SECRETASE ACTIVITY AND METHODS OF USE THEREOF” (priority 2008, published 2013).

The assay relates to Aβ production. Put plainly: Cellular Aβ IC50 determination (memapsin 2 activity in a cellular assay of Aβ production). As to conditions: Cricetulus griseus; Chinese hamster ovary cells over-expressing human APP695 with London and Swedish mutations, 24 h, Aβ40 sandwich ELISA; read-out: M2 IC50. Type of assay: cell-based, Chinese hamster. As for the experimental part: The potency of compounds against memapsin 2 activity was determined in a cellular assay of Aβ production. […] Chinese hamster ovary cells that over-express human APP695 with the London and Swedish mutations were seeded in multi-well plates at 10% confluency. Compounds are dissolved in DMSO to concentrations near 1 mM, and diluted into culture media to a final concentration near 4 μM (final 0.4% DMSO). Compounds were diluted serially and applied to cells in multi-well plates 48 h after seeding. Incubation was continued in 5% CO2 at 37° C. for 24 h. Aliquots were removed and assayed for […] content using a sandwich ELISA (BioSource International). Amount of Aβ40 over the range of concentration of compounds, relative to control incubations, were fit to a 4-parameter IC50 model.
Usually IC50 stands for the point on the concentration scale where inhibition reaches its midpoint. Take `Cc1csc(CN(C(=O)c2cccc(C(=O)N[C@@H](Cc3ccccc3)[C@H](O)CNCc3cccc(C(F)(F)F)c3)c2)C2CC2)n1` [2-9, N1-cyclopropyl-N3-((2S,3R)-3-hydroxy-1-phenyl-4-(3-(trifluoromethyl)benzylamino)butan-2-yl)-N1-((4-methylthiazol-2-yl)methyl)isophthalamide, reference compound]: the half-inhibitory concentration (IC50) was less than 500 nM.

Regarding `Cc1csc(CN(C)C(=O)c2cc(C(=O)N[C@@H](Cc3ccccc3)[C@H](O)[C@H]3CCCN3)cc(-c3ncco3)c2)n1` [1-15, N1-((1R,2S)-1-hydroxy-3-phenyl-1-((R)-pyrrolidin-2-yl)propan-2-yl)-N3-methyl-N3-((4-methylthiazol-2-yl)methyl)-5-(oxazol-2-yl)isophthalamide], the IC50 is less than 500 nM.

In the case of `Cc1cc(C(=O)N[C@@H](Cc2ccccc2)[C@H](O)CNCc2cncc(C(C)(C)C)c2)cc(C(=O)N2CCC[C@@H]2c2nc(C)co2)c1` [2-3, N-((2S,3R)-4-((5-tert-butylpyridin-3-yl)methylamino)-3-hydroxy-1-phenylbutan-2-yl)-3-methyl-5-((R)-2-(4-methyloxazol-2-yl)pyrrolidine-1-carbonyl)benzamide, reference compound], the IC50 is less than 500 nM.

With `Cc1csc([C@H]2CCCN2C(=O)c2cc(F)cc(C(=O)N[C@@H](Cc3ccccc3)[C@H](O)[C@H]3CCCN3)c2)n1` [1-32, 3-fluoro-N-((1R,2S)-1-hydroxy-3-phenyl-1-((R)-pyrrolidin-2-yl)propan-2-yl)-5-((R)-2-(4-methylthiazol-2-yl)pyrrolidine-1-carbonyl)benzamide], the half-maximal inhibitory concentration (IC50) was greater than 1000 nM.

On to `Cc1csc(CN(C)C(=O)c2cc(C(=O)N[C@@H](Cc3ccccc3)[C@H](O)[C@H]3CCCN3)cc(N(C)S(C)(=O)=O)c2)n1` [1-27, N1-((1R,2S)-1-hydroxy-3-phenyl-1-((R)-pyrrolidin-2-yl)propan-2-yl)-N3-methyl-5-(N-methylmethylsulfonamido)-N3-((4-methylthiazol-2-yl)methyl)isophthalamide], for which the 50% inhibitory concentration (IC50) was less than 500 nM.

Take `CCn1cc(CNC[C@@H](O)[C@H](Cc2ccccc2)NC(=O)c2cc(C)cc(C(=O)N3CCC[C@@H]3c3nc(C)co3)c2)cn1` [2-5, N-((2S,3R)-4-((1-ethyl-1H-pyrazol-4-yl)methylamino)-3-hydroxy-1-phenylbutan-2-yl)-3-methyl-5-((R)-2-(4-methyloxazol-2-yl)pyrrolidine-1-carbonyl)benzamide, reference compound]: the IC50 is less than 500 nM.

As to `Cc1csc([C@H]2CCCN2C(=O)c2cccc(C(=O)N[C@@H](Cc3ccccc3)[C@H](O)[C@@H]3CCCN3)c2)n1` [1-48, N-((1R,2S)-1-hydroxy-3-phenyl-1-((S)-pyrrolidin-2-yl)propan-2-yl)-3-((R)-2-(4-methylthiazol-2-yl)pyrrolidine-1-carbonyl)benzamide], the IC50 is greater than 1000 nM.

For the compound `Cc1csc([C@H]2CCCN2C(=O)c2cccc(C(=O)N[C@@H](Cc3ccccc3)[C@H](O)[C@H]3CCCN3)c2)n1` [1-40, N-((1R,2S)-1-hydroxy-3-phenyl-1-((R)-pyrrolidin-2-yl)propan-2-yl)-3-((R)-2-(4-methylthiazol-2-yl)pyrrolidine-1-carbonyl)benzamide], the half-inhibitory concentration (IC50) was in the range of 500 to 1000 nM.

On to `C[C@@H](NC(=O)c1cc(C(=O)N[C@@H](Cc2ccccc2)[C@H](O)[C@H]2CCCN2)cc(N(C)S(C)(=O)=O)c1)c1ccccc1` [1-11, N1-((1R,2S)-1-hydroxy-3-phenyl-1-((R)-pyrrolidin-2-yl)propan-2-yl)-5-(N-methylmethylsulfonamido)-N3-((R)-1-phenylethyl)isophthalamide], for which the IC50 was less than 500 nM.

As for `Cc1csc(CN(C)C(=O)c2cccc(C(=O)N[C@@H](Cc3ccccc3)[C@H](O)[C@H]3CCCN3C(=O)OC(C)(C)C)c2)n1` [1-1, (R)-tert-butyl 2-((1S,2S)-1-hydroxy-2-(3-(methyl((4-methylthiazol-2-yl)methyl)carbamoyl)benzamido)-3-phenylpropyl)pyrrolidine-1-carboxylate], the half-inhibitory concentration (IC50) was greater than 1000 nM.

Take `Cc1coc([C@H]2CCCN2C(=O)c2cc(C(=O)N[C@@H](Cc3ccccc3)[C@H](O)[C@H]3CCCN3)cc(-c3ncco3)c2)n1` [1-17, N-((1R,2S)-1-hydroxy-3-phenyl-1-((R)-pyrrolidin-2-yl)propan-2-yl)-3-((R)-2-(4-methyloxazol-2-yl)pyrrolidine-1-carbonyl)-5-(oxazol-2-yl)benzamide]: the IC50 is less than 500 nM.

Regarding `Cc1csc([C@H]2CCCN2C(=O)c2cccc(C(=O)N[C@@H](Cc3ccccc3)[C@H](O)CNCc3cccc(C(C)(C)C)c3)c2)n1` [2-10, N-((2S,3R)-4-(3-tert-butylbenzylamino)-3-hydroxy-1-phenylbutan-2-yl)-3-((R)-2-(4-methylthiazol-2-yl)pyrrolidine-1-carbonyl)benzamide, reference compound], the IC50 is less than 500 nM.

For the compound `Cc1csc(CN(C)C(=O)c2cccc(C(=O)N[C@@H](Cc3ccccc3)[C@H](O)[C@H]3C[C@@H](OCc4ccccc4)CN3)c2)n1` [1-9, N1-((1R,2S)-1-((2R,4R)-4-(benzyloxy)pyrrolidin-2-yl)-1-hydroxy-3-phenylpropan-2-yl)-N3-methyl-N3-((4-methylthiazol-2-yl)methyl)isophthalamide], the IC50 is less than 500 nM.

As for `Cc1csc([C@H]2CCCN2C(=O)c2cccc(C(=O)N[C@@H](Cc3cc(F)cc(F)c3)[C@H](O)[C@H]3CCCN3)c2)n1` [1-44, N-((1R,2S)-3-(3,5-difluorophenyl)-1-hydroxy-1-((R)-pyrrolidin-2-yl)propan-2-yl)-3-((R)-2-(4-methylthiazol-2-yl)pyrrolidine-1-carbonyl)benzamide], the IC50 was 500 to 1000 nM.

In the case of `Cc1csc([C@H]2CCCN2C(=O)c2cc(C(=O)N[C@@H](Cc3ccccc3)[C@H](O)[C@H]3CCCN3)cc(-n3cccc3)c2)n1` [1-16, N1-((1R,2S)-1-hydroxy-3-phenyl-1-((R)-pyrrolidin-2-yl)propan-2-yl)-3-((R)-2-(4-methylthiazol-2-yl)pyrrolidine-1-carbonyl)-5-(1H-pyrrol-1-yl)benzamide], the concentration for half-maximal inhibition (IC50) is 500 to 1000 nM.

As to `Cc1csc(CN(C)C(=O)c2cccc(C(=O)N[C@@H](Cc3ccccc3)[C@H](O)[C@H]3CCCN3)c2)n1` [1-2, N1-((1R,2S)-1-hydroxy-3-phenyl-1-((R)-pyrrolidin-2-yl)propan-2-yl)-N3-methyl-N3-((4-methylthiazol-2-yl)methyl)isophthalamide], the 50% inhibitory concentration (IC50) is greater than 1000 nM.

Take `Cc1csc(CN(C)C(=O)c2cccc(C(=O)N[C@@H](Cc3ccccc3)[C@H](O)[C@H]3C[C@@H](O)CN3)c2)n1` [1-10, N1-((1R,2S)-1-hydroxy-1-((2R,4R)-4-hydroxypyrrolidin-2-yl)-3-phenylpropan-2-yl)-N3-methyl-N3-((4-methylthiazol-2-yl)methyl)isophthalamide]: the IC50 is greater than 1000 nM.

With `Cc1csc([C@H]2CCCN2C(=O)c2cc(C(=O)N[C@@H](Cc3ccccc3)[C@H](O)[C@H]3CCCN3)cc(N3CCOCC3)c2)n1` [1-33, N-((1R,2S)-1-hydroxy-3-phenyl-1-((R)-pyrrolidin-2-yl)propan-2-yl)-3-((R)-2-(4-methylthiazol-2-yl)pyrrolidine-1-carbonyl)-5-morpholinobenzamide], the IC50 was greater than 1000 nM.

For `Cc1cc(C(=O)N[C@@H](Cc2ccccc2)[C@H](O)CNCc2cncc(C(C)C)c2)cc(C(=O)N2CCC[C@@H]2c2nc(C)cs2)c1` [2-8, N-((2S,3R)-3-hydroxy-4-((5-isopropylpyridin-3-yl)methylamino)-1-phenylbutan-2-yl)-3-methyl-5-((R)-2-(4-methylthiazol-2-yl)pyrrolidine-1-carbonyl)benzamide, reference compound], the IC50 is less than 500 nM.

For the compound `Cc1csc([C@H]2CCCN2C(=O)c2cc(C(=O)N[C@@H](Cc3ccccc3)[C@H](O)[C@H]3CCCN3)cc(-c3cccc(C(F)(F)F)c3)c2)n1` [1-43, N-((1R,2S)-1-hydroxy-3-phenyl-1-((R)-pyrrolidin-2-yl)propan-2-yl)-5-((R)-2-(4-methylthiazol-2-yl)pyrrolidine-1-carbonyl)-3′-(trifluoromethyl)biphenyl-3-carboxamide], the IC50 was greater than 1000 nM.

Regarding `Cc1csc(CN(C)C(=O)c2cc(C(=O)N[C@@H](Cc3ccccc3)[C@H](O)[C@H]3CCCN3C(=O)OC(C)(C)C)cc(-c3ncco3)c2)n1` [1-7, (R)-tert-butyl 2-((1S,2S)-1-hydroxy-2-(3-(methyl((4-methylthiazol-2-yl)methyl)carbamoyl)-5-(oxazol-2-yl)benzamido)-3-phenylpropyl)pyrrolidine-1-carboxylate], the IC50 is greater than 1000 nM.

Take `Cc1coc([C@H]2CCCN2C(=O)c2cc(CF)cc(C(=O)N[C@@H](Cc3ccccc3)[C@H](O)CNCc3cccc(C(C)(C)C)c3)c2)n1` [2-7, N-((2S,3R)-4-(3-tert-butylbenzylamino)-3-hydroxy-1-phenylbutan-2-yl)-3-(fluoromethyl)-5-((R)-2-(4-methyloxazol-2-yl)pyrrolidine-1-carbonyl)benzamide, reference compound]: the half-inhibitory concentration (IC50) was less than 500 nM.

For the compound `Cc1csc(CN(C)C(=O)c2cccc(C(=O)N[C@@H](Cc3cc(F)cc(F)c3)[C@H](O)[C@H]3CCCN3)c2)n1` [1-41, N1-((1R,2S)-3-(3,5-difluorophenyl)-1-hydroxy-1-((R)-pyrrolidin-2-yl)propan-2-yl)-N3-methyl-N3-((4-methylthiazol-2-yl)methyl)isophthalamide], the 50% inhibitory concentration (IC50) is greater than 1000 nM.

As for `C[C@@H](NC(=O)c1cc(C(=O)N[C@@H](Cc2ccccc2)[C@H](O)[C@H]2CCCN2C(=O)OC(C)(C)C)cc(N(C)S(C)(=O)=O)c1)c1ccccc1` [1-5, (R)-tert-butyl 2-((1S,2S)-1-hydroxy-2-(3-(N-methylmethylsulfonamido)-5-((R)-1-phenylethylcarbamoyl)benzamido)-3-phenylpropyl)pyrrolidine-1-carboxylate], the 50% inhibitory concentration (IC50) was greater than 1000 nM.
